Values quoted from earlier work as cited in US20240016743A1, “A METHOD FOR PRODUCING ENTACAPONE TABLETS” (CHINA MEHECO KANGLI PHARMA CO., LTD, priority 2021, published 2024).

Details: clinical trials

N[C@@H](Cc1ccc(O)c(O)c1)C(=O)O [levodopa]
prolong the "On" time: 16%
shorten the "Off" time: 24%
